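Grown in 96-well plates, cells were treated for 48 hours with each compound at five concentrations. Insufficient inhibition: endpoint recorded as highest concentration tested. The concentration for full growth arrest is given as TGI.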
Tests used:
Experiment in all cases: NCI tumour cell line growth inhibition, 48 h
[1] = system: M19-MEL melanoma
[2] = system: DMS 273 small cell lung
[3] = system: SN12C renal
[4] = system: DLD-1 colon
[5] = system: RXF-631 renal
[6] = system: DMS 114 small cell lung
[7] = system: KM20L2 colon
[8] = system: HOP-18 NSCLC
[9] = system: LXFL 529 NSCLC
[10] = system: UO-31 renal
[11] = system: SK-MEL-2 melanoma
[12] = system: SNB-78 CNS
[13] = system: XF 498 CNS

SMILES | TGI [1] | TGI [2] | TGI [3] | TGI [4] | TGI [5] | TGI [6] | TGI [7] | TGI [8] | TGI [9] | TGI [10] | TGI [11] | TGI [12] | TGI [13]
CC1CN(C(=O)CN2CCC(CCCCN(C)C)CC2)c2ccccc2NC1=O (stereo unspecified) | > 100 µM | > 100 µM | > 100 µM | > 100 µM | > 100 µM | > 100 µM | > 100 µM | > 100 µM | > 100 µM | > 100 µM |  |  | 
CN1CCOC(c2ccccc2)O1 (stereo unspecified) | > 100 µM | > 100 µM | > 100 µM | > 100 µM | > 100 µM | > 100 µM | > 100 µM | > 100 µM | > 100 µM | > 100 µM | > 100 µM | > 100 µM | 
N#C/C1=C(\N)CCSSSC1 | > 100 µM | > 100 µM | > 100 µM | > 100 µM | > 100 µM | > 100 µM | 49.3 µM |  | > 100 µM | > 100 µM | 90.5 µM | > 100 µM | > 100 µM
CN(C)CCC(=O)c1ccccc1 | 52.7 µM | > 100 µM | > 70.1 µM | 41 µM |  | > 56.2 µM | > 59.1 µM | > 68.9 µM | 44.7 µM | > 68.8 µM | > 84.4 µM | 69 µM | 38.5 µM

Reference: PubChem BioAssay (NCI)
